Measurements from patent US20070203066A1, “Compositions and methods for inhibiting cellular proliferation” (priority 2005, published 2007).
Non-standard residues stand in square brackets, D forms with d. Primed or numbered codes have the meaning given here. No end group written: not given here. Ida(3) = iminodiacetic acid linker, Lys side-chain amines bound to its two carboxyl groups; Ida(4) = iminodiacetic acid linker (dimerization linker bound to lysine side chain); Ahx = NCCCCCC(=O)O

Test system: HUVECs
Assay type: cell-based
Conditions: 48 h
Outline: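 HUVECs seeded at 5,000 cells/well in EBM with 2% FCS, adhered ≥12 hours, then stimulated with bFGF 10 ng/ml or VEGF 5 ng/ml plus varying peptide concentrations. After 48 hours at 37 ° C, 5% CO2, proliferation inhibition read by BrdU incorporation.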

**Q.** For `CC[C@H](C)[C@H](NC(=O)[C@H](C)NC(=O)[C@@H](NC(=O)[C@H](C)NC(=O)[C@H](CCC(N)=O)NC(=O)[C@H](CCCNC(=N)N)NC(=O)[C@H](CCCNC(=N)N)NC(=O)[C@H](CCCNC(=N)N)NC(=O)[C@H](CCCNC(=N)N)NC(=O)[C@H](C)NC(C)=O)C(C)C)C(=O)N[C@@H](Cc1ccc(O)cc1)C(=O)N[C@@H](Cc1ccccc1)C(=O)N[C@@H](CCCCNC(=O)CN(CC(=O)NCCCC[C@H](NC(=O)[C@H](Cc1ccccc1)NC(=O)[C@H](Cc1ccc(O)cc1)NC(=O)[C@@H](NC(=O)[C@H](C)NC(=O)[C@@H](NC(=O)[C@H](C)NC(=O)[C@H](CCC(N)=O)NC(=O)[C@H](CCCNC(=N)N)NC(=O)[C@H](CCCNC(=N)N)NC(=O)[C@H](CCCNC(=N)N)NC(=O)[C@H](CCCNC(=N)N)NC(=O)[C@H](C)NC(C)=O)C(C)C)[C@@H](C)CC)C(N)=O)C(=O)CCNC(=O)OC(C)(C)C)C(N)=O` [Peptide 315], which IC50 is on record?
**A.** Its IC50 is less than 10 µM.

**Q.** `CC[C@H](C)[C@H](NC(=O)[C@H](CCCNC(=N)N)NC(=O)[C@@H](NC(=O)[C@H](Cc1c[nH]cn1)NC(=O)[C@H](CCC(N)=O)NC(=O)[C@H](CCCNC(=N)N)NC(=O)[C@H](CCCNC(=N)N)NC(=O)[C@H](Cc1c[nH]cn1)NC(=O)[C@H](Cc1c[nH]cn1)NC(=O)[C@H](CCCNC(=N)N)NC(C)=O)C(C)C)C(=O)N[C@@H](Cc1ccc(O)cc1)C(=O)N[C@@H](Cc1ccccc1)C(=O)N[C@@H](CCCCNC(=O)CN(CC(=O)NCCCC[C@H](NC(=O)[C@H](Cc1ccccc1)NC(=O)[C@H](Cc1ccc(O)cc1)NC(=O)[C@@H](NC(=O)[C@H](CCCNC(=N)N)NC(=O)[C@@H](NC(=O)[C@H](Cc1c[nH]cn1)NC(=O)[C@H](CCC(N)=O)NC(=O)[C@H](CCCNC(=N)N)NC(=O)[C@H](CCCNC(=N)N)NC(=O)[C@H](Cc1c[nH]cn1)NC(=O)[C@H](Cc1c[nH]cn1)NC(=O)[C@H](CCCNC(=N)N)NC(C)=O)C(C)C)[C@@H](C)CC)C(N)=O)C(=O)CCNC(=O)OC(C)(C)C)C(N)=O` [Peptide 333] was tested. Which IC50 did it give?
**A.** The IC50 was less than 10 µM.

Same assay, conditions: HUVEC proliferation, bFGF at 10 ng/ml or VEGF at 5 ng/ml, 48 hours, BrdU incorporation; read-out: IC50 on HUVECs

**Q.** For KTKRKRKKIAYEEIFVQNM [compound 58], which IC50 is on record?
**A.** The IC50 was greater than 30 µM.

**Q.** Which IC50 does the source give for “224 (Ac-ARRRRQRVAIHFK; also: homodimer via Ida linker on side chain of Lys13) [compound 224]” here?
**A.** The IC50 was less than 10 µM.

**Q.** With “256 (Ac-ARRRRQRV[dA]IIFK; not fully specified (C-terminus); also: homodimer: side chain of Lys13 bound to an Ida linker) [compound 256]” as the compound, how does the IC50 read?
**A.** Its IC50 is less than 10 µM.

**Q.** Which IC50 does the source give for “327 (XHRRRQHVRIYFK; not fully specified; Xaa = Acylated Histidine; The side chain of Lysine at position 13 is covalently bound to an Ida linker forming a homodimer of residues 1 through 13.) [compound 327]” here?
**A.** The IC50 was less than 10 µM.

**Q.** Which IC50 does the source give for “177 (Ac-RRRRAQRVRIIF; also: homodimer via C-terminal Lys linker) [compound 177]” here?
**A.** The IC50 was less than 10 µM.

**Q.** “230 (XRHRRQRVRIIF; Xaa = Acylated Histidine; Dimeric peptide wherein the C terminus of Phe in position 12 of one peptide chain is covalently bound to one of the amino groups of a Lysine linker and Phe of the remaining peptide chain is covalently bound to the other amino group of the Lysine linker.) [compound 230]” was tested. Which IC50 did it give?
**A.** Its IC50 is less than 10 µM.

**Q.** With “171 (Ac-RRRRRQRVRIIFK; also: homodimer via GP3-PEG 20 kDa linker on Lys13 side chains) [compound 171]” as the compound, how does the IC50 read?
**A.** The IC50 was less than 10 µM.

**Q.** “179 (Ac-RRRRRQRVAIIF; also: dimer: C-terminus of Phe12 of each chain bound to one amino group of a Lys linker) [compound 179]” was tested. Which IC50 did it give?
**A.** The IC50 was less than 10 µM.

**Q.** For “380 (Ac-ARRRRQEVAIYFK-NH2; not fully specified (residue 13); also: homodimer via Ida linker on Lys13 side chain, Ida amine Boc) [compound 380]”, which IC50 is on record?
**A.** The IC50 was less than 10 µM.

**Q.** How did the IC50 turn out when “365 (Ac-ARRRRQRVATYFK-NH2; not fully specified (residue 13); also: homodimer of residues 1-13 via Ida linker on K13 side chain) [compound 365]” was run?
**A.** Its IC50 is greater than 30 µM.

**Q.** How did the IC50 turn out when KTKRKRKKQRVKIIFVANM [compound 107] was run?
**A.** Its IC50 is less than 10 µM.

**Q.** For “486 (Ac-ARRRRQSVAIKF; not fully specified (residue 11); also: homodimer: Lys11 side chain bound to Ida linker (Boc on Ida N)) [compound 486]”, which IC50 is on record?
**A.** Its IC50 is less than 10 µM.

**Q.** Which IC50 does the source give for “465 (Ac-ARRQRQAVAIYFK(Ida(3)); not fully specified (C-terminus); also: homodimer via Ida linker on Lys13 side chain) [compound 465]” here?
**A.** The IC50 was less than 10 µM.

**Q.** KTKRKRKKQRYEEIFVQNM [compound 30] was tested. Which IC50 did it give?
**A.** Its IC50 is greater than 30 µM.

**Q.** “270 (Ac-RRRRRQAVAINFK-NH2; not fully specified (residue 13); also: homodimer: Lys13 side chain bound to Ida linker) [compound 270]” was tested. Which IC50 did it give?
**A.** The IC50 was less than 10 µM.

**Q.** Which IC50 does the source give for “185 (Ac-RHRRRQRVRIIF; also: homodimer via C-terminal Lys linker) [compound 185]” here?
**A.** The IC50 was less than 10 µM.

**Q.** For “209 (Ac-RRRRAQAVRIIF; also: dimer: Phe C-termini joined via Lys linker) [compound 209]”, which IC50 is on record?
**A.** Its IC50 is less than 10 µM.

**Q.** How did the IC50 turn out when “513 (Ac-ARRRRIRVAIYFK; not fully specified (C-terminus); also: homodimer via Ida linker at Lys13 side chain) [compound 513]” was run?
**A.** The IC50 was 10 to 30 µM.

**Q.** Which IC50 does the source give for “258 (Ac-ARRRRQ[dR]VAIIFK-NH2; not fully specified (residue 13); also: homodimer via Ida linker on Lys13 side chains) [compound 258]” here?
**A.** Its IC50 is less than 10 µM.

**Q.** For “415 (Ac-ARRRRQAVRIKFV; not fully specified (residue 11, bridges); also: homodimer of residues 1-13 via Ida linker on K11 side chain) [compound 415]”, which IC50 is on record?
**A.** The IC50 was less than 10 µM.

**Q.** With “349 (Ac-ARRRRQRVAIYPK-NH2; not fully specified (residue 13); also: homodimer of residues 1-13 via Ida linker on Lys13 side chain) [compound 349]” as the compound, how does the IC50 read?
**A.** The IC50 was greater than 30 µM.

**Q.** How did the IC50 turn out when “272 (Ac-RARRRQAVAINFK-NH2; not fully specified (residue 13); also: homodimer via Ida linker on Lys13 side chain) [compound 272]” was run?
**A.** Its IC50 is less than 10 µM.

**Q.** How did the IC50 turn out when KTKRKRKKQRVKEIFVQNM [compound 32] was run?
**A.** Its IC50 is greater than 30 µM.

**Q.** Which IC50 does the source give for RKRKKQQRVKIAYEEIFV [compound 76] here?
**A.** The IC50 was greater than 30 µM.

**Q.** How did the IC50 turn out when “190 (Ac-RRRRRQRVHIIF; also: dimer: C-terminal Phe bound to an amino group of a Lys linker, 2 chains per Lys) [compound 190]” was run?
**A.** Its IC50 is less than 10 µM.

**Q.** How did the IC50 turn out when RKKQRVKIAYEEIF [compound 69] was run?
**A.** The IC50 was greater than 30 µM.

**Q.** For “448 (Ac-RRRRRQAAAAAAK(Ida(4)); not fully specified (C-terminus); also: homodimer via Ida linker at K13) [compound 448]”, which IC50 is on record?
**A.** Its IC50 is greater than 30 µM.

**Q.** With “262 (Ac-AR[dR]RRQRVAIIFK-NH2; not fully specified (residue 13); also: homodimer via Ida linker on Lys13 side chains) [compound 262]” as the compound, how does the IC50 read?
**A.** Its IC50 is less than 10 µM.

**Q.** For KTKRKRKKQAYEEIFVQNM [compound 29], which IC50 is on record?
**A.** Its IC50 is greater than 30 µM.

**Q.** For “213 (Ac-ARARRQRVAIIF; also: dimer: Phe C-termini joined via Lys linker) [compound 213]”, which IC50 is on record?
**A.** The IC50 was less than 10 µM.

**Q.** Which IC50 does the source give for “420 (Ac-ARRRRQSVAIYFK; not fully specified (residue 13, C-terminus); also: homodimer of residues 1-13 via Ida linker on K13 side chain) [compound 420]” here?
**A.** Its IC50 is less than 10 µM.

**Q.** With “215 (Ac-ARRRAQRVAIIF; also: dimer: Phe C-termini joined via Lys linker) [compound 215]” as the compound, how does the IC50 read?
**A.** Its IC50 is less than 10 µM.

**Q.** With “201 (Ac-RARRRQRVAIIF; also: dimer: C-terminal Phe bound to an amino group of a Lys linker, 2 chains per Lys) [compound 201]” as the compound, how does the IC50 read?
**A.** The IC50 was less than 10 µM.

**Q.** How did the IC50 turn out when KRKRKKQRVKIAYEEIFVQNM [compound 20] was run?
**A.** Its IC50 is greater than 30 µM.

**Q.** With “59 ([Ahx]RTRRRRRRQRVRIAYEEIFVRNM; also: homodimer of residues 1-24 via Ida linker on Ahx amino group) [compound 59]” as the compound, how does the IC50 read?
**A.** Its IC50 is greater than 30 µM.

**Q.** KRKRKKQRVKIAYEEIFVKNM [compound 3] was tested. Which IC50 did it give?
**A.** The IC50 was 10 to 30 µM.

**Q.** With KTKRKRKAARVKIAYEEIFVQNM [compound 53] as the compound, how does the IC50 read?
**A.** The IC50 was greater than 30 µM.

**Q.** With “502 (Ac-PRRHRQAVAIYFK; not fully specified (residue 13, C-terminus); also: homodimer via Ida linker on Lys13 side chain) [compound 502]” as the compound, how does the IC50 read?
**A.** Its IC50 is 10 to 30 µM.

**Q.** With “269 (Ac-ARRRRQRVAIEFK-NH2; not fully specified (residue 13); also: homodimer: side chain of Lys13 bound to an Ida linker) [compound 269]” as the compound, how does the IC50 read?
**A.** The IC50 was 10 to 30 µM.

**Q.** “223 (Ac-ARRRRQRVAIGFK; also: homodimer via Ida linker on side chain of Lys13) [compound 223]” was tested. Which IC50 did it give?
**A.** Its IC50 is greater than 30 µM.

**Q.** With “473 (Ac-PRRRLQAVAIYFK(Ida(3)); not fully specified (C-terminus); also: homodimer via Ida linker on Lys13 side chain) [compound 473]” as the compound, how does the IC50 read?
**A.** Its IC50 is greater than 30 µM.

**Q.** For “456 (Ac-KRRRRQAVAIVF; not fully specified (residue 1); also: homodimer via Ida linker on K1 side chain) [compound 456]”, which IC50 is on record?
**A.** Its IC50 is greater than 30 µM.

**Q.** How did the IC50 turn out when “413 (Ac-WRRRRQAVAIYFK; not fully specified (residue 13, C-terminus); also: homodimer via Ida linker on Lys side chains, linker at 13 via Ida, other end not in the chain) [compound 413]” was run?
**A.** The IC50 was less than 10 µM.
